Values of other authors as cited in patent publication US10024828B2, “Adsorbent and analysis method using same” (Hitachi High-Technologies Corporation, priority 2013, dated 2018).

Settings: source not stated (calculated or measured value)

| log P (octanol-water partition coefficient) | Structure (SMILES) |
| --- | --- |
| −0.57 | O=c1[nH]cc(F)c(=O)[nH]1 [5-fluorouracil] |
| 0.14 | Nc1ccn([C@@H]2O[C@H](CO)[C@@H](O)C2(F)F)c(=O)n1 [gemcitabine] |
| −0.91 | CN(Cc1cnc2nc(N)nc(N)c2n1)c1ccc(C(=O)N[C@@H](CCC(=O)O)C(=O)O)cc1 [methotrexate] |
